According to US4659859A, “2-alkoxy-1-alkoxy phosphoryl dichlorides” (priority 1986, dated 1987):
Several values for one entry are separate records, joined by “and”; a condition that tells them apart may be missing. Equal entries are not always repeated. Structures can show the parent of a compound that is named as a salt.

Experiments:
[1] = test system: 6C3 HED lymphosarcoma; assay: Antitumor activity vs 6C3 HED lymphosarcoma in mice; assay type: in vivo; settings: daily for 8 days after inoculation
From the text: (§1) Compounds according to formula II above are also active against transplanted tumors in mice. Table II which follows gives the results of testing (d,1)-2-ethoxy-1-[(2-trimethylaminoethoxy)phosphinyloxy]-eicosane,hydroxy inner salt, (A), against several such tumors. In the table, column 1 gives the name of the tumor, column 2 the dosage levels, column 3 toxic deaths, column 4, the percent tumor growth inhibition and column 5, the dosage schedule or regimen. Ten mice were given each dosage I.P. and a group of 20 mice used as controls.

[2] = test system: X-5563 plasma cell myeloma; assay: Oral dosing vs X-5563 plasma cell myeloma; assay type: in vivo, mice
[3] = test system: X-5563 plasma cell myeloma; assay: Antitumor activity vs X-5563 plasma cell myeloma in mice; assay type: in vivo; settings: daily for 10 days with 3 day delay
From the text: as §1
Table III gives the results obtained by comparing the activity of the racemate (d,1)-2-ethoxy-1-[(2-trimethylaminoethoxy)phosphinyloxy]eicosane,hydroxy inner salt (A), the L-(-)enantiomer (B) and the D-(+)enantiomer (C) versus X-5563, a plasma cell myeloma.

[4] = test system: CA755 mammary carcinoma; assay: Antitumor activity vs CA755 mammary carcinoma; parameters: species or system mice; settings: mouse, in vivo
From the text: as §1

[5] = test system: release of arachidonic acid from membrane phospholipids (rabbit neutrophils); assay: Inhibition of release of arachidonic acid from membrane phospholipids in glycogen-elicited rabbit neutrophils; assay type: cell-based; settings: A-23187 0.5 mcg/ml activation, 5 minutes pretreatment at 37° C.
Description: In this procedure, glycogen-elicited rabbit neutrophils are labelled with ^14 C-arachidonic acid by incubation for one hour at 37° C. and followed by treatment with the compound under test at 37° C. for 5 minutes. The cells were then activated by addition of 0.5 mcg/ml of A-23187 (an ionophore) for 5 minutes. Cellular metabolism was stopped; the membrane lipids extracted; and the extracted lipids chromatographed on TLC plates. Assays were conducted for free ^14 C-arachidonic acid and hydroxy^14 C-eicosatetraenoic acid (HETES) using a radiochromatogram scanner.

[6] = test system: C-6 colon carcinoma; assay: Antitumor activity vs C-6 colon carcinoma in mice; assay type: in vivo; settings: daily for 10 days, 5 day delay
From the text: as §1

[7] = test system: P388 leukemia; assay: Antitumor activity vs P388 leukemia; parameters: species or system mice; settings: mouse, in vivo
From the text: as §1

[8] = test system: M-5 ovarian carcinoma; assay: Antitumor activity vs M-5 ovarian carcinoma; parameters: species or system mice; settings: mouse, in vivo
From the text: as §1

[9] = test system: spontaneously hypertensive rats (SHR); assay: Blood pressure and heart rate in spontaneously hypertensive rats, tail cuff method; assay type: in vivo, rat; settings: for Blood pressure: tail cuff
From the text: (§2) The above compounds are also active in lowering the blood pressure of spontaneously hypertensive rats (SHR). […] In the table, column 1 gives the compound used, column 2 the dose level, column 3, the route of administration, column 4, number of rats, column 5, the time of blood pressure measurement, column 6, blood pressure in mm (Hg), and column 7, heart rate.
*B.P. measured by tail cuff method.

[10] = test system: spontaneously hypertensive rats (SHR); assay: Blood pressure and heart rate in spontaneously hypertensive rats, femoral artery cannula; assay type: in vivo, rat; settings: for Blood pressure: femoral artery cannula
From the text: as §2
**B.P. measured by femoral artery cannula.

[11] = test system: C3 H mammary carcinoma; assay: Antitumor activity vs C3 H mammary carcinoma; parameters: species or system mice; settings: mouse, in vivo
From the text: as §1

[12] = 30 mg/kg S.C., 0 hours (baseline), 8 rats
[13] = 50 mg/kg S.C., 0 hours (baseline), 8 rats
[14] = 3 mg/kg I.V., 0 hours (baseline)
[15] = 10 mg/kg I.V., 0 hours (baseline)

For `CCCCCCCCCCCCCCCCCCC(COP(=O)([O-])OCC[N+](C)(C)C)OCC` (racemic) [Compound 3, (d,l)-2-Ethoxy-1-[(2-trimethylaminoethoxy)phosphinyloxy]eicosane, hydroxy inner salt], the “Percent inhibition of Tumor growth” value ([1]; 12 mg/kg I.P.) was 10%, the Toxic deaths ([1]; 12 mg/kg I.P.) was 0/10 and the “Percent inhibition of Tumor growth” value ([1]; 17 mg/kg I.P.) was 15%. The Toxic deaths ([1]; 17 mg/kg I.P.) was 0/10, the “Percent inhibition of Tumor growth” value ([1]; 25 mg/kg I.P.) was 48% and the Toxic deaths ([1]; 25 mg/kg I.P.) was 0/10. For the same compound, the “Percent inhibition of Tumor growth” value ([1]; 35 mg/kg I.P.) was 85%, the Toxic deaths ([1]; 35 mg/kg I.P.) was 0/10 and the “inhibition of tumor growth” value ([2]; 25 mg/kg orally daily for 10 days after inoculation) was 10%. The “inhibition of tumor growth” value ([2]; 35 mg/kg orally daily for 10 days after inoculation) was 47%, the “inhibition of tumor growth” value ([2]; 50 mg/kg orally daily for 10 days after inoculation) was 56% and the toxicity ([2]; 50, 35 and 25 mg/kg orally daily for 10 days) was “minimal toxicity”. For the same compound, the toxicity ([2]; 50 and 70 mg/kg dose levels orally) was “toxic”, the “Percent inhibition of Tumor growth” value ([3]; 12 mg/kg) was 37% and the Toxic deaths ([3]; 12 mg/kg) was 0/10. The Toxic deaths ([3]; 17 mg/kg) was 0/10, the “Percent inhibition of Tumor growth” value ([3]; 17 mg/kg, listed as (d,1)-A) was 65% and the “Percent inhibition of Tumor growth” value ([3]; 17 mg/kg, listed as A) was 65% and 70%. For the same compound, the “Percent inhibition of Tumor growth” value ([3]; 25 mg/kg, listed as (d,1)-A) was 77%, the Toxic deaths ([3]; 25 mg/kg, listed as (d,1)-A) was 0/10 and the “Percent inhibition of Tumor growth” value ([3]; 25 mg/kg, listed as A) was 77% and 86%. For the same compound, the Toxic deaths ([3]; 25 mg/kg, listed as A) was 0/10 and 2/10, the “Percent inhibition of Tumor growth” value ([3]; 35 mg/kg, listed as (d,1)-A) was “Toxic” and the Toxic deaths ([3]; 35 mg/kg, listed as (d,1)-A) was 4/10. For the same compound, the “Percent inhibition of Tumor growth” value ([3]; 35 mg/kg, listed as A) was “toxic”, the Toxic deaths ([3]; 35 mg/kg, listed as A) was 4/10 and 5/10 and the Toxic deaths ([3]; 50 mg/kg) was 10/10. For the same compound, the “Percent inhibition of Tumor growth” value ([3]; 50 mg/kg, listed as (d,1)-A) was “Toxic”, the “Percent inhibition of Tumor growth” value ([3]; 50 mg/kg, listed as A) was “toxic” and the “Percent inhibition of Tumor growth” value ([3]; 70 mg/kg) was “toxic”. The Toxic deaths ([3]; 70 mg/kg) was 10/10, the “activity against CA755 mammary carcinoma” value [4] was “no activity” and the “inhibition of the release of arachidonic acid (AA) from phospholipids” value [5] was 69%. For the same compound, the “inhibition of the total production of free AA and HETES” value [5] was 97%, the “Percent inhibition of Tumor growth” value ([6]; 12 mg/kg I.P.) was 23% and the Toxic deaths ([6]; 12 mg/kg I.P.) was 0/10. For the same compound, the “Percent inhibition of Tumor growth” value ([6]; 17 mg/kg I.P.) was 56%, the Toxic deaths ([6]; 17 mg/kg I.P.) was 1/10 and the “Percent inhibition of Tumor growth” value ([6]; 25 mg/kg I.P.) was 24%. For the same compound, the Toxic deaths ([6]; 25 mg/kg I.P.) was 0/10, the “Percent inhibition of Tumor growth” value ([6]; 35 mg/kg I.P.) was “Toxic” and the Toxic deaths ([6]; 35 mg/kg I.P.) was 5/10. For the same compound, the “activity against P388 leukemia” value [7] was “no activity”, the “activity against M-5 ovarian carcinoma” value [8] was “no activity” and the Blood pressure ([9]; 5 mg/kg S.C., 0 hours (baseline), 5 rats) was 188 mm Hg. It also gave a Blood pressure ([9]; 5 mg/kg S.C., 1 hour, 5 rats) of 177 mm Hg, a Blood pressure ([9]; 5 mg/kg S.C., 2 hours, 5 rats) of 159 mm Hg and a Blood pressure ([9]; 5 mg/kg S.C., 3 hours, 5 rats) of 155 mm Hg. It also gave a Blood pressure ([9]; 5 mg/kg S.C., 4 hours, 5 rats) of 154 mm Hg, a Blood pressure ([9]; 5 mg/kg S.C., 5 hours, 5 rats) of 156 mm Hg and a Heart Rate [9, 12] of 335 beats/min. For the same compound, the Blood pressure [9, 12] was 188 mm Hg, the Heart Rate ([9]; 30 mg/kg S.C., 1 hour, 8 rats) was 328 beats/min and the Blood pressure ([9]; 30 mg/kg S.C., 1 hour, 8 rats) was 177 mm Hg. For the same compound, the Heart Rate ([9]; 30 mg/kg S.C., 2 hours, 8 rats) was 349 beats/min, the Blood pressure ([9]; 30 mg/kg S.C., 2 hours, 8 rats) was 151 mm Hg and the Heart Rate ([9]; 30 mg/kg S.C., 3 hours, 8 rats) was 346 beats/min. The Blood pressure ([9]; 30 mg/kg S.C., 3 hours, 8 rats) was 147 mm Hg, the Heart Rate ([9]; 30 mg/kg S.C., 4 hours, 8 rats) was 347 beats/min and the Blood pressure ([9]; 30 mg/kg S.C., 4 hours, 8 rats) was 156 mm Hg. For the same compound, the Heart Rate ([9]; 30 mg/kg S.C., 5 hours, 8 rats) was 341 beats/min, the Blood pressure ([9]; 30 mg/kg S.C., 5 hours, 8 rats) was 151 mm Hg and the Heart Rate [9, 13] was 345 beats/min. The Blood pressure [9, 13] was 190 mm Hg, the Heart Rate ([9]; 50 mg/kg S.C., 1 hour, 8 rats) was 352 beats/min and the Blood pressure ([9]; 50 mg/kg S.C., 1 hour, 8 rats) was 177 mm Hg. For the same compound, the Heart Rate ([9]; 50 mg/kg S.C., 2 hours, 8 rats) was 355 beats/min, the Blood pressure ([9]; 50 mg/kg S.C., 2 hours, 8 rats) was 149 mm Hg and the Heart Rate ([9]; 50 mg/kg S.C., 3 hours, 8 rats) was 367 beats/min. The Blood pressure ([9]; 50 mg/kg S.C., 3 hours, 8 rats) was 143 mm Hg, the Heart Rate ([9]; 50 mg/kg S.C., 4 hours, 8 rats) was 357 beats/min and the Blood pressure ([9]; 50 mg/kg S.C., 4 hours, 8 rats) was 139 mm Hg. For the same compound, the Heart Rate ([9]; 50 mg/kg S.C., 5 hours, 8 rats) was 359 beats/min, the Blood pressure ([9]; 50 mg/kg S.C., 5 hours, 8 rats) was 129 mm Hg and the “hypotensive effects in SHR (in words)” value ([9]; administered subcutaneously, various dose levels) was “hypotensive effects”. It also gave a Heart Rate [10, 14] of 335 beats/min, a Blood pressure [10, 14] of 195 mm Hg and a Heart Rate ([10]; 3 mg/kg I.V., 1.0 hours) of 395 beats/min. It also gave a Blood pressure ([10]; 3 mg/kg I.V., 1.0 hours) of 173 mm Hg, a Heart Rate ([10]; 3 mg/kg I.V., .08 hours) of 280 beats/min and a Blood pressure ([10]; 3 mg/kg I.V., .08 hours) of 105 mm Hg. For the same compound, the Heart Rate ([10]; 3 mg/kg I.V., .25 hours) was 337 beats/min, the Blood pressure ([10]; 3 mg/kg I.V., .25 hours) was 140 mm Hg and the Heart Rate ([10]; 3 mg/kg I.V., .5 hours) was 370 beats/min. It also gave a Blood pressure ([10]; 3 mg/kg I.V., .5 hours) of 153 mm Hg, a Heart Rate [10, 15] of 345 beats/min and a Blood pressure [10, 15] of 198 mm Hg. The Heart Rate ([10]; 10 mg/kg I.V., 1.0 hours) was 365 beats/min, the Blood pressure ([10]; 10 mg/kg I.V., 1.0 hours) was 154 mm Hg and the Heart Rate ([10]; 10 mg/kg I.V., .08 hours) was 442 beats/min. It also gave a Blood pressure ([10]; 10 mg/kg I.V., .08 hours) of 78 mm Hg, a Heart Rate ([10]; 10 mg/kg I.V., .25 hours) of 420 beats/min and a Blood pressure ([10]; 10 mg/kg I.V., .25 hours) of 140 mm Hg. The Heart Rate ([10]; 10 mg/kg I.V., .5 hours) was 395 beats/min, the Blood pressure ([10]; 10 mg/kg I.V., .5 hours) was 153 mm Hg and the “activity against C3 H mammary carcinoma” value [11] was “no activity”.
